According to patent publication US20150141381A1, “TETRACYCLINE COMPOUNDS HAVING TARGET THERAPEUTIC ACTIVITIES” (Paratek Pharmaceuticals, Inc., priority 2001, published 2015):

Assays:
[1] = tested on: S. aureus RN450; test: In Vitro Anti-Bacterial Activity Assay (MIC), gram positive; format: cell-based; details: Staphylococcus aureus, RN450, 18 h, MIC class, Table 3; read-out: Antibiotic Activity Gram +
[2] = tested on: E. coli mL308 225; test: In Vitro Anti-Bacterial Activity Assay (MIC), gram negative; format: cell-based; details: Escherichia coli, ML308225, 18 h, MIC class, Table 3; read-out: Antibiotic Activity Gram −

Compound | MIC [1] [µg/mL] | MIC [2] [µg/mL]
COc1ccc(C(=O)Nc2ccc(-c3ccc(O)c4c3C[C@H]3C[C@H]5C(N(C)C)C(O)=C(C(N)=O)C(=O)[C@@]5(O)C(O)=C3C4=O)cc2)cc1 (some centres unmarked) [HT] | < 4 | > 4
CO/N=C/c1cc(-c2ccc(O)c3c2C[C@H]2C[C@H]4[C@H](N(C)C)C(O)=C(C(N)=O)C(=O)[C@@]4(O)C(O)=C2C3=O)ccc1OC [HV] | < 4 | > 4
COc1ccc(-c2ccc(O)c3c2C[C@H]2C[C@H]4[C@H](N(C)C)C(O)=C(C(N)=O)C(=O)[C@@]4(O)C(O)=C2C3=O)cc1C=O [HW] | < 4 | < 4
CN(C)[C@@H]1C(O)=C(C(N)=O)C(=O)[C@@]2(O)C(O)=C3C(=O)c4c(ccc(NC(=O)CCCC(=O)O)c4O)C[C@H]3C[C@@H]12 [HX] | > 4 | > 4
CCc1cc(N(C)C)c2c(c1O)C(=O)C1=C(O)[C@]3(O)C(=O)C(C(N)=O)=C(O)C(N(C)C)[C@@H]3C[C@@H]1C2 (some centres unmarked) [IA] | < 4 | > 4
COC(=O)CCC(=O)Nc1ccc2c(c1O)C(=O)C1=C(O)[C@]3(O)C(=O)C(C(N)=O)=C(O)[C@@H](N(C)C)[C@@H]3C[C@@H]1C2 [IB] | > 4 | > 4
CO/N=C(/C)c1cc(C(C)(C)C)c(O)c2c1C[C@H]1C[C@H]3[C@H](N(C)C)C(O)=C(C(N)=O)C(=O)[C@@]3(O)C(O)=C1C2=O [IC] | < 4 | > 4
CN(C)c1ccc(-c2cc(N)c(O)c3c2C[C@H]2C[C@H]4[C@@H](N(C)C)C(O)=C(C(N)=O)C(=O)[C@@]4(O)C(O)=C2C3=O)cc1 [ID] | < 4 | > 4
Cc1noc(C)c1S(=O)(=O)NCc1ccc(O)c2c1C[C@H]1C[C@H]3[C@H](N(C)C)C(O)=C(C(N)=O)C(=O)[C@@]3(O)C(O)=C1C2=O [IG] | < 4 | > 4
CN(C)[C@@H]1C(O)=C(C(N)=O)C(=O)[C@@]2(O)C(O)=C3C(=O)c4c(ccc(NC(=O)c5ccno5)c4O)C[C@H]3C[C@@H]12 [IJ] | < 4 | > 4
COC(=O)c1cc(NC(=O)c2ccno2)cc(-c2ccc(O)c3c2C[C@H]2C[C@H]4[C@H](N(C)C)C(O)=C(C(N)=O)C(=O)[C@@]4(O)C(O)=C2C3=O)c1 [IK] | < 4 | > 4
CN(C)[C@@H]1C(O)=C(C(N)=O)C(=O)[C@@]2(O)C(O)=C3C(=O)c4c(ccc(NC(=O)N5CCOCC5)c4O)C[C@H]3C[C@@H]12 [IL] | > 4 | > 4
CN(C)[C@@H]1C(O)=C(C(N)=O)C(=O)[C@@]2(O)C(O)=C3C(=O)c4c(O)ccc(NC(=O)c5ccno5)c4C[C@H]3C[C@@H]12 [IM] | < 4 | > 4
CN(C)[C@@H]1C(O)=C(C(N)=O)C(=O)[C@@]2(O)C(O)=C3C(=O)c4c(O)ccc(-c5ccc(NC(=O)c6ccno6)cc5)c4C[C@H]3C[C@@H]12 [IN] | < 4 | > 4
Cc1noc(C)c1S(=O)(=O)Nc1ccc2c(c1O)C(=O)C1=C(O)[C@]3(O)C(=O)C(C(N)=O)=C(O)[C@@H](N(C)C)[C@@H]3C[C@@H]1C2 [IP] | < 4 | > 4
COc1ccc(-c2ccc(O)c3c2C[C@H]2C[C@H]4[C@H](N(C)C)C(O)=C(C(N)=O)C(=O)[C@@]4(O)C(O)=C2C3=O)cc1CN(C)C [IT] | < 4 | < 4
CCc1cc(C(C)=O)c(O)c2c1C[C@H]1C[C@H]3[C@H](N(C)C)C(O)=C(C(N)=O)C(=O)[C@@]3(O)C(O)=C1C2=O [IY] | < 4 | > 4

Compound | MIC [1] [µg/mL] | MIC [2] [µg/mL]
CCc1cc(CNCC(C)C)c(O)c2c1C[C@H]1C[C@H]3[C@H](N(C)C)C(O)=C(C(N)=O)C(=O)[C@@]3(O)C(O)=C1C2=O [IZ] | < 4 | < 4
COc1ccc(CNC2CCCCC2)cc1-c1ccc(O)c2c1C[C@H]1C[C@H]3[C@H](N(C)C)C(O)=C(C(N)=O)C(=O)[C@@]3(O)C(O)=C1C2=O [I] | < 4 | < 4
C[C@H]1c2ccc(-c3cccc(CN4CCN(C)CC4)c3)c(O)c2C(=O)C2=C(O)[C@]3(O)C(=O)C(C(N)=O)=C(O)[C@@H](N(C)C)[C@@H]3[C@@H](O)[C@@H]21 [JA] | > 4 | > 4
C[C@H]1c2ccc(NC3CCN(C)CC3)c(O)c2C(=O)C2=C(O)[C@]3(O)C(=O)C(C(N)=O)=C(O)[C@@H](N(C)C)[C@@H]3[C@@H](O)[C@@H]21 [JF] | < 4 | < 4
C[C@H]1c2ccc(CNCC(C)(C)C)c(O)c2C(=O)C2=C(O)[C@]3(O)C(=O)C(C(N)=O)=C(O)[C@@H](N(C)C)[C@@H]3[C@@H](O)[C@@H]21 [JG] | < 4 | < 4
CC(C)CNCc1ccc2c(c1O)C(=O)C1=C(O)[C@]3(O)C(=O)C(C(N)=O)=C(O)[C@@H](N(C)C)[C@@H]3[C@@H](O)[C@@H]1[C@H]2C [JH] | < 4 | < 4
C[C@H]1c2ccc(CNCCc3ccccc3)c(O)c2C(=O)C2=C(O)[C@]3(O)C(=O)C(C(N)=O)=C(O)[C@@H](N(C)C)[C@@H]3[C@@H](O)[C@@H]21 [JI] | < 4 | < 4
C[C@H]1c2ccc(NC3CCN(Cc4ccccc4)CC3)c(O)c2C(=O)C2=C(O)[C@]3(O)C(=O)C(C(N)=O)=C(O)[C@@H](N(C)C)[C@@H]3[C@@H](O)[C@@H]21 [JK] | < 4 | < 4
CCc1cc(CNC(=O)CN(C)C)c(O)c2c1C[C@H]1C[C@H]3[C@@H](N(C)C)C(O)=C(C(N)=O)C(=O)[C@@]3(O)C(O)=C1C2=O [JL] | < 4 | > 4
COc1ccc(-c2ccc(O)c3c2C[C@H]2C[C@H]4[C@H](N(C)C)C(O)=C(C(N)=O)C(=O)[C@@]4(O)C(O)=C2C3=O)c(OC)c1OC [JM] | < 4 | > 4
CN(C)[C@@H]1C(O)=C(C(N)=O)C(=O)[C@@]2(O)C(O)=C3C(=O)c4c(O)ccc(NC5CCN(Cc6ccccc6)CC5)c4C[C@H]3C[C@@H]12 [JN] | < 4 | < 4
C[C@H]1c2ccc(CNC(=O)c3ccccc3)c(O)c2C(=O)C2=C(O)[C@]3(O)C(=O)C(C(N)=O)=C(O)[C@@H](N(C)C)[C@@H]3[C@@H](O)[C@@H]21 [JO] | < 4 | > 4
CCCCN(c1ccc2c(c1O)C(=O)C1=C(O)[C@]3(O)C(=O)C(C(N)=O)=C(O)[C@@H](N(C)C)[C@@H]3C[C@@H]1C2)C1CCN(C)CC1 [JR] | > 4 | > 4
CN(C)C1C(O)=C(C(N)=O)C(=O)[C@@]2(O)C(O)=C3C(=O)c4c(O)ccc(NS(C)(=O)=O)c4C[C@H]3C[C@@H]12 (some centres unmarked) [JS] | < 4 | > 4
CN(C)[C@@H]1C(O)=C(C(N)=O)C(=O)[C@@]2(O)C(O)=C3C(=O)c4c(ccc(N)c4O)C[C@H]3C[C@@H]12 [JU] | < 4 | < 4
C[C@H]1c2ccc(N3CCCCC3)c(O)c2C(=O)C2=C(O)[C@]3(O)C(=O)C(C(N)=O)=C(O)[C@@H](N(C)C)[C@@H]3[C@@H](O)[C@@H]21 [JV] | < 4 | > 4
CC(=O)c1cc(I)c(O)c2c1C[C@H]1C[C@H]3[C@H](N(C)C)C(O)=C(C(N)=O)C(=O)[C@@]3(O)C(O)=C1C2=O [JW] | > 4 | > 4
